Assay: Contact of acid solutions with human skin
Details: solution with a pH of less than 0.5

With `O=S(=O)(O)O` [sulfuric acid] the “irritation of a hand put into the solution” value was “an irritation would occur”.

Source: US9005673B2, “Preservative and additive for food and feed” (priority 2005, dated 2015)
